Experimental data taken from patent US20160038449A1, “MULTI-COMPONENT PHARMACEUTICALS FOR TREATING DIABETES” (Complexa, Inc., priority 2010, published 2016).

Assays:
ob/ob mice [1] = assay: Blood glucose level of ob/ob mice after administration; assay type: in vivo; settings: ob/ob mice (FIG. 2)
Text: Similar results are observed in experiments involving ob/ob mice.

WT mice [2] = assay: Blood glucose level of fed WT mice after administration; assay type: in vivo; settings: for blood glucose level: fed WT mice, level maintained over the study (FIG. 1), vehicle control about 170 mg/dL
Method: Oleic acid, nitro-oleic acid, rosiglitazone, or a vehicle control were administered to fed WT mice, and the blood glucose level of these mice was monitored.

[3] = set-up: species or system mice; settings: mouse, in vivo
Method: In addition to reducing blood glucose levels, substantially no increase in body weight was observed when nitro-oleic acid is administered to mice as compared to mice administered a vehicle control, oleic acid, or rosiglitazone.

ob/ob mice [4] = assay: Insulin sensitivity: blood glucose after administration of insulin in ob/ob mice; assay type: in vivo; settings: 120 minute time course (FIG. 6)
WT mice [5] = assay: Insulin sensitivity: blood glucose after administration of insulin in WT mice; assay type: in vivo; settings: 120 minute time course (FIG. 5)

## CCCCCCCC/C=C\CCCCCCCC(=O)O [oleic acid]
ob/ob mice [1]
  change of blood glucose level over the course of the study: increased blood glucose level over the course of the study
WT mice [2]; fed WT mice (FIG. 1)
  change of blood glucose level over the course of the study: increased blood glucose levels over the course of the study
[3]
  change of body weight over the course of the study: steady increase in body weight over the course of the study
ob/ob mice [4]
  blood glucose levels after administration of insulin: increased over the 120 minute time course

## 9- or 10-nitro octadecenoic acid [nitro-oleic acid]
ob/ob mice [1]
  change of blood glucose level over the course of the study: effectively reduced the blood glucose level over the course of the study
WT mice [2]
  blood glucose level: about 125 mg/dL
WT mice [5]
  blood glucose levels after administration of insulin: initial drop in blood glucose levels after administration of insulin followed by an increase in blood glucose back to normal levels about 120 minutes after the administration of insulin
[3]
  change of body weight over the course of the study: initially decreased (days 0-10), and then remained substantially constant over the second half of the study
ob/ob mice [4]
  blood glucose levels after administration of insulin: substantial decrease in blood glucose levels over the course of the 120 minute time period

## CN(CCOc1ccc(CC2SC(=O)NC2=O)cc1)c1ccccn1 (centres unmarked) [rosiglitazone]
WT mice [2]
  blood glucose level: about 150 mg/dL
[3]
  change of body weight over the course of the study: steady increase in body weight over the course of the study
